Laboratory results published in patent publication US20260060961A1, “SUBSTITUTED HETEROCYCLES AS RAS INHIBITORS” (Jazz Pharmaceuticals Ireland Limited, priority 2022, published 2026).
pIC50: −log10 of the molar value.

molecular target: Recombinant human KRAS protein containing the G12C amino acid substitution (Homo sapiens (Human), UniProt P01116, G12C); test: HTRF nucleotide exchange assay, KRAS G12C; format: biochemical; details: 180 minute incubation with compound at room temperature; at least two independent replicates; read-out: KRAS G12C HTRF NEA IC50
Sequence (P01116 other isoform, or with tags, fused parts or gaps G12C): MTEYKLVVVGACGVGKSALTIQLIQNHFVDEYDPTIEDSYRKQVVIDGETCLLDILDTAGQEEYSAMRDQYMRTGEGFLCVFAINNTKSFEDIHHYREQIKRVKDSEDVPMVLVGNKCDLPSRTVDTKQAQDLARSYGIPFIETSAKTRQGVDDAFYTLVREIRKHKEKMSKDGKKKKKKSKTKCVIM
Method: The capacity of compounds to bind KRAS G12C and KRAS wildtype was quantified using a HTRF nucleotide exchange assay. Recombinant human KRAS protein (5 nM; aa1-188 KRAS WT or KRAS containing the G12C amino acid substitution, an N-terminal 6×His-tag and leader sequence), and 2 nM Europium-labeled anti-6×His antibody were mixed in assay buffer (10 mM HEPES pH7.3, 75 mM NaCl, 5 mM MgCl2, 0.05% BSA, 0.0025% NP-40 and 100 mM KF) with various concentrations of compound in a 384-well plate and a volume of 5 μL. After a 180 minute incubation at room temperature, 5 μl of 200 nM EDA-GTP-DY647P1 diluted in assay buffer was added to the plate. Following 30-minute incubation at room temperature, time-resolved fluorescence was measured on a PerkinElmer Envision plate reader. DMSO (0.3%) and unlabeled GDP (1 μM) or equivalent tool compound were used to generate the Max and Min assay signals, respectively. Data was analysed using a four-parameter logistic model to calculate IC50 values, with at least two independent replicates were performed for each compound.

Row | SMILES | pIC50
1 | C=CC(=O)N1CC2(CC(c3nc(-c4ccccc4)c(-c4c(C)ccc5[nH]ncc45)n3C)C2)C1 [Example 2, 1-[6-[1-methyl-5-(5-methyl-1H-indazol-4-yl)-4-phenyl-imidazol-2-yl]-2-azaspiro[3.3]heptan-2-yl]prop-2-en-1-one] | 5.00 to 6.00
2 | C=CC(=O)N1CC2(CC(c3nc(-c4ccc5c(cnn5C)c4)c(-c4cc(O)ccc4C(F)(F)F)n3C)C2)C1 [Example 39, 1-[6-[5-[5-hydroxy-2-(trifluoromethyl)phenyl]-1-methyl-4-(1-methylindazol-5-yl)imidazol-2-yl]-2-azaspiro[3.3]heptan-2-yl]prop-2-en-1-one] | ≥ 6.00
3 | C=CC(=O)N1CC2(CC(c3nc(-c4c(C)ccc5[nH]ncc45)c(-c4ccc5c(cnn5C)c4)n3C)C2)C1 [Example 25, 1-[6-[1-methyl-5-(1-methylindazol-5-yl)-4-(5-methyl-1H-indazol-4-yl)imidazol-2-yl]-2-azaspiro[3.3]heptan-2-yl]prop-2-en-1-one] | ≤ 5.00
4 | C=CC(=O)N1CC2(CC(c3nc(-c4ccc5c(cnn5C)c4)c(-c4cc(O)cc5cccc(Cl)c45)n3C)C2)C1 [Example 35, 1-[6-[5-(8-chloro-3-hydroxy-1-naphthyl)-1-methyl-4-(1-methylindazol-5-yl)imidazol-2-yl]-2-azaspiro[3.3]heptan-2-yl]prop-2-en-1-one] | ≥ 6.00
5 | C=CC(=O)N1CC2(CC(c3nc(-c4ccc(C(=O)NCCN(C)C)cc4)c(-c4c(C)ccc5[nH]ncc45)n3C)C2)C1 [Example 22, N-[2-(dimethylamino)ethyl]-4-[1-methyl-5-(5-methyl-1H-indazol-4-yl)-2-(2-prop-2-enoyl-2-azaspiro[3.3]heptan-6-yl)imidazol-4-yl]benzamide] | 5.00 to 6.00
6 | C=CC(=O)N1CC2(CC(c3nc(-c4ccc5c(c4)OCCN5C)c(-c4c(C)ccc5[nH]ncc45)n3C)C2)C1 [Example 18, 1-[6-[1-methyl-4-(4-methyl-2,3-dihydro-1,4-benzoxazin-7-yl)-5-(5-methyl-1H-indazol-4-yl)imidazol-2-yl]-2-azaspiro[3.3]heptan-2-yl]prop-2-en-1-one] | ≥ 6.00
7 | C=CC(=O)N1CC2(CC(c3nc(-c4ccc(N5CCOCC5)cc4)c(-c4c(C)ccc5[nH]ncc45)n3C)C2)C1 [Example 5, 1-[6-[1-methyl-5-(5-methyl-1H-indazol-4-yl)-4-(4-morpholinophenyl)imidazol-2-yl]-2-azaspiro[3.3]heptan-2-yl]prop-2-en-1-one] | ≥ 6.00
8 | C=CC(=O)N1CC2(CC(c3nc(-c4ccc5c(cnn5C)c4)c(-c4cc(O)cc5ccccc45)n3CC)C2)C1 [Example 32, 1-[6-[1-ethyl-5-(3-hydroxy-1-naphthyl)-4-(1-methylindazol-5-yl)imidazol-2-yl]-2-azaspiro[3.3]heptan-2-yl]prop-2-en-1-one] | ≥ 6.00
9 | C=CC(=O)N1CC2(CC(c3nc(-c4cnn(CC)c4)c(-c4c(C)ccc5[nH]ncc45)n3C)C2)C1 [Example 13, 1-[6-[4-(1-ethylpyrazol-4-yl)-1-methyl-5-(5-methyl-1H-indazol-4-yl)imidazol-2-yl]-2-azaspiro[3.3]heptan-2-yl]prop-2-en-1-one] | ≤ 5.00
10 | C=CC(=O)N1CC2(CC(c3nc(-c4ccc(N5CCOCC5)cc4)c(-c4cc(O)cc5ccccc45)n3C)C2)C1 [Example 27, 1-[6-[5-(3-hydroxy-1-naphthyl)-1-methyl-4-(4-morpholinophenyl)imidazol-2-yl]-2-azaspiro[3.3]heptan-2-yl]prop-2-en-1-one] | ≥ 6.00
11 | C=CC(=O)N1CC2(CC(c3nc(-c4ccc(C(=O)NCCN5CCOCC5)cc4)c(-c4cc(O)cc5ccccc45)n3C)C2)C1 [Example 37, 4-[5-(3-hydroxy-1-naphthyl)-1-methyl-2-(2-prop-2-enoyl-2-azaspiro[3.3]heptan-6-yl)imidazol-4-yl]-N-(2-morpholinoethyl)benzamide] | ≥ 6.00
12 | C=CC(=O)N1CC2(CC(c3nc(-c4ccc5c(cnn5C)c4)c(-c4cc(O)cc5ccccc45)n3C)C2)C1 [Example 26, 1-[6-[5-(3-hydroxy-1-naphthyl)-1-methyl-4-(1-methylindazol-5-yl)imidazol-2-yl]-2-azaspiro[3.3]heptan-2-yl]prop-2-en-1-one] | ≥ 6.00
